We go through 13 compounds from patent US12421249B2, “Inhibitors of APOL1 and methods of using same” (Vertex Pharmaceuticals Incorporated, priority 2020, dated 2025).

The experiment deals with T1, APOL1 G1 (Homo sapiens, UniProt O14791, I384M/S342G).
T1 sequence (O14791 28-398 S342G/I384M): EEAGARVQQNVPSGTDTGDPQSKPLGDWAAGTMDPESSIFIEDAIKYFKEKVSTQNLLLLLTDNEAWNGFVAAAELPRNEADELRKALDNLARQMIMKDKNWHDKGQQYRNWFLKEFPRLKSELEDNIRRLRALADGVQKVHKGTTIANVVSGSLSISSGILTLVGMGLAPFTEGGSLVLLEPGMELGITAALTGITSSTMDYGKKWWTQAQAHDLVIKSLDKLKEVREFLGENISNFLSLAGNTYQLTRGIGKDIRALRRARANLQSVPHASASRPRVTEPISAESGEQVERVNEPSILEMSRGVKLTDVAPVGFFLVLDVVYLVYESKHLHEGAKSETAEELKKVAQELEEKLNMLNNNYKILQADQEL
Briefly: MultiTox-Fluor Multiplex Cytotoxicity Assay in tet-inducible APOL1 G1 T-REx-HEK293 cells (clone G1 DC3.25). Format: cell-based. Also noted: expressed in transfected cells; host or cells: T-REx HEK293, pAAVS1-Puro-APOL1 G1, clone G1 DC3.25. The conditions noted are these: Multi-Tox Assay, APOL1 variant cell line not given; for Emax: read-out: Multi-Tox Assay Max Activity (%); for IC50: IP50 = IC50 for cell proliferation. On the procedure:
The MultiTox-Fluor Multiplex Cytotoxicity Assay is a single-reagent-addition, homogeneous, fluorescence assay that measures the number of live and dead cells simultaneously in culture wells. The assay measures cell viability and cytotoxicity by detecting two distinct protease activities. The live-cell protease activity is restricted to intact viable cells and is measured using a fluorogenic, cell-permeant peptide glycyl-phenylalanylamino fluorocoumarin (GF-AFC) substrate. The substrate enters intact cells, where it is cleaved to generate a fluorescent signal proportional to the number of living cells. […] A second, cell-impermeant, fluorogenic peptide substrate (bis-AAF-R110 Substrate) is used to measure dead-cell protease that has been released from cells that have lost membrane integrity. A ratio of dead to live cells is used to normalize data.
Briefly, the tet-inducible transgenic APOL1 T-REx-HEK293 cell lines were incubated with 50 ng/mL tet to induce APOL1 in the presence of 3-(2-(4-fluorophenyl)-1H-indol-3-yl)-N-((3S,4R)-4-hydroxy-2-oxopyrrolidin-3-yl)propenamide at […], 0.0045, 0.0015, 0.0005 μM in duplicate for 24 hours in a humidified 37° C. incubator. The MultiTox reagent was added to each well and placed back in the incubator for an additional 30 minutes. The plate was read on the EnVision plate reader. A ratio of dead to live cells was used to normalize, and data was imported, analyzed and fit using Genedata Screener (Basel, Switzerland) software. Data was normalized using percent of control, no tet (100% viability), and 50 ng/mL tet treated (0% viability), and fit using Smart Fit. The reagents, methods, and complete protocol for the MultiTox assay are described below.
Human embryonic kidney (HEK293) cell lines containing a tet-inducible expression system (T-REx™; Invitrogen, Carlsbad, CA) and Adeno-associated virus site 1 pAAVS1-Puro-APOL1 G0 or pAAVS1-Puro-APOL1 G1 or pAAVS1-Puro-APOL1 G2 Clones G0 DC2.13, G1 DC3.25, and G2 DC4.44 were grown in a T-225 flask at ˜90% confluency in cell growth media (DMEM, 10% Tet-free FBS, 2 mM L-glutamine, 100 Units/mL penicillin-streptomycin, 5 μg/mL blasticidin S HCl, 1 μg/mL puromycin dihydrochloride). Cells were washed with DPBS and then trypsinized to dissociate from the flask. Media was used to quench the trypsin, cells were then pelleted at 200 g and resuspended in fresh cell assay media (DMEM, 2% Tet-free FBS, 2 mM L-glutamine, 100 Units/mL penicillin-streptomycin). Cells were counted and diluted to 1.17×10^6 cells/mL. 20 μL of cells (23,400/well) were dispensed to every well of a 384-well Poly-D-Lysine coated plate using the Multidrop dispenser. The plates were then incubated at room temperature for one hour.
Tetracycline is needed to induce APOL1 expression. 1 mg/mL tet stock in water was diluted to 250 ng/mL (5×) in cell assay media. 60 μL of cell assay media (no tet control) was dispensed in columns 1 and 24, and 60 μL of 5× tet was dispensed in 384-PP-round bottom plate in columns 2 to 23 with the Multidrop dispenser.
Assay ready plates from the Global Compound Archive were ordered using template 384_APOL1Cell_DR10n2_50 μM_v3. Compounds were dispensed at 200 nL in DMSO. The final top concentration was 10 μM with a 10 point 3-fold dilution in duplicate in the MultiTox assay.
20 μL were transferred from the 5× tet plate to the ARP and mixed, then 5 μL of 5× tet and the compounds were transferred to the cell plate and mixed using the Bravo. The cell plate was placed in the humidified 37° C. 5% CO2 incubator for 24 hours.
The MultiTox-Fluor Multiplex Cytotoxicity Assay was performed in accordance with the manufacturer's protocol. After cells were incubated with tet and compound for 24 hours, 25 μL of 1× MultiTox reagent was added to each well using the Multidrop dispenser; the plates were placed on a plate shaker (600 rpm) for 2 minutes, then centrifuged briefly and placed back in the 37° C. incubator for 30 minutes. […]

What is called IC50 is the concentration that inhibits the measured activity by half. High values mean weaker potency in that assay, low ones greater potency in that assay. Consider `COC(=O)C1([C@@H]2C[C@]3(C[C@H](C)N2)OCCc2cc(Cl)sc23)CC1` [Compound 372, methyl 1-[(2′S, 6′S, 7S)-2-chloro-6′-methyl-spiro[4,5-dihydrothieno[2,3-c]pyran-7,4′-piperidine]-2′-yl]cyclopropanecarboxylate], for which the Emax was determined as 92% and the half-maximal inhibitory concentration (IC50) was greater than 500 nM.

With `C[C@H]1C[C@@]2(C[C@@H](C3(N)CC3)N1)OCCc1cc(Cl)sc12` [Compound 373, 1-[(2′S,6′S,7S)-2-chloro-6′-methyl-spiro[4,5-dihydrothieno[2,3-c]pyran-7,4′-piperidine]-2′-yl]cyclopropanamine], the Emax worked out at 99% and the IC50 is less than 50 nM. The like results for `CC(=O)NC1([C@@H]2C[C@]3(C[C@H](C)N2)OCCc2cc(Cl)sc23)CC1` [Compound 379, N-[1-[(2′S,6′S, 7S)-2-chloro-6′-methyl-spiro[4,5-dihydrothieno[2,3-c]pyran-7,4′-piperidine]-2′-yl]cyclopropyl]acetamide] were, in that order, 94% and greater than 500 nM.

In the case of `C[C@H]1C[C@@]2(C[C@@H](C3(CO)CC3)N1)OCCc1cc(Cl)sc12` [Compound 380, [1-[(2′S,6′S, 7S)-2-chloro-6′-methyl-spiro[4,5-dihydrothieno[2,3-c]pyran-7,4′-piperidine]-2′-yl]cyclopropyl]methanol], the Emax was found to be 99% and the IC50 is less than 50 nM. With `Cn1cc([C@@H]2C[C@]3(C[C@H](C4CC4)N2)OCCc2cc(Cl)sc23)nn1` [Compound 381, (2′R,6′S, 7S)-2-chloro-2′-cyclopropyl-6′-(1-methyltriazol-4-yl)spiro[4,5-dihydrothieno[2,3-c]pyran-7,4′-piperidine]], the concentration for half-maximal inhibition (IC50) is less than 50 nM. Still for that read-out and setting: the figure for `Cn1cc([C@@H]2C[C@]3(C[C@H](C4CC4)N2)OC[C@@H](O)c2cc(Cl)sc23)nn1` [Compound 382, (2′R,4S,6′S, 7S)-2-chloro-2′-cyclopropyl-6′-(1-methyltriazol-4-yl)spiro[4,5-dihydrothieno[2,3-c]pyran-7,4′-piperidine]-4-ol] is less than 50 nM; for `Cn1cc([C@@H]2C[C@]3(C[C@H](C4CC4)N2)OCCc2cc(C(F)(F)F)sc23)nn1` [Compound 383, (2′R,6′S,7S)-2′-cyclopropyl-6′-(1-methyltriazol-4-yl)-2-(trifluoromethyl)spiro[4,5-dihydrothieno[2,3-c]pyran-7,4′-piperidine]] it is less than 50 nM; for `C[C@H]1C[C@@]2(C[C@@H](c3cn(C)nn3)N1)OCC(C)(O)c1cc(C(F)(F)F)sc12` (stereo partly drawn) [Compound 384, (2′S,6′S, 7S)-2′,4-dimethyl-6′-(1-methyltriazol-4-yl)-2-(trifluoromethyl)spiro[5H-thieno[2,3-c]pyran-7,4′-piperidine]-4-ol] it is less than 50 nM. What is called IC90 is the concentration at which the effect reaches the 90% level. The low end stands for an effect from little substance, the high end for a need for much substance. `C[C@H]1C[C@@]2(C[C@@H](c3cn(C)nn3)N1)OC[C@@H](O)c1cc(C(F)(F)F)sc12` [Compound 386, (2S,4S,4′S,6S)-2-methyl-6-(1-(methyl-^13C-d3)-1H-1,2,3-triazol-4-yl)-2′-(trifluoromethyl)-4′,5′-dihydrospiro[piperidine-4,7′-thieno[2,3-c]pyran]-5-^13C-4′-ol]: the IC90 is less than 50 nM and the concentration for half-maximal inhibition (IC50) is less than 50 nM. On to `Cn1cc([C@@H]2C[C@]3(C[C@H](c4ccccc4)N2)OC[C@@H](O)c2cc(Cl)sc23)nn1` [Compound 387, (2′S,4S,6′R, 7S)-2-chloro-2′-(1-methyltriazol-4-yl)-6′-phenyl-spiro[4,5-dihydrothieno[2,3-c]pyran-7,4′-piperidine]-4-ol], for which the IC50 is greater than 500 nM.

`Cn1cc(C2CC3(CC(C(F)F)N2)OCCc2cc(Cl)sc23)nn1` (stereo not drawn) [Compound 388, 2-chloro-2′-(difluoromethyl)-6′-(1-methyltriazol-4-yl)spiro[4,5-dihydrothieno[2,3-c]pyran-7,4′-piperidine]]: the IC50 was greater than 500 nM.

The compound `Cn1cc(C2CC3(CC(C(F)F)N2)OCCc2cc(C(F)(F)F)sc23)nn1` (stereo not drawn) [Compound 389, 2′-(difluoromethyl)-6′-(1-methyltriazol-4-yl)-2-(trifluoromethyl)spiro[4,5-dihydrothieno[2,3-c]pyran-7,4′-piperidine]] returned an IC50 of 50 to 500 nM. The same measure, in the same setting: the figure for `C[C@H]1C[C@@]2(C[C@@H](c3cn(C)nn3)N1)OC[C@@H](O)c1sc(C(F)(F)F)cc12` [Compound 390, (2′S,4S,6′S, 7R)-2′-methyl-6′-(1-methyltriazol-4-yl)-2-(trifluoromethyl)spiro[6,7-dihydrothieno[3,2-c]pyran-4,4′-piperidine]-7-ol] is less than 50 nM.
